The record followed here is US9393232B2 (BeiGene, Ltd., priority 2013, dated 2016).

Assay [1] has as its target Recombinant human BRD4(1-477) (Homo sapiens (Human), UniProt O60885). The experiment in a line: BRD4 TR-FRET biochemical IC50 assay. The format is binding. The conditions noted are these: TR-FRET, tetra-acetylated histone peptide; read-out: BRD4 IC50. In general terms: In TR-FRET formats the signal depends on donor and acceptor labels being close together.
The test system of another assay is MV4-11. The experiment in a line: MV4-11 (3 Days) EC50. Format: cell-based.

Read-outs that look alike come from different tables or passages of the source.

For the compound `Cc1noc(C)c1-c1ccc2c(c1)C(N)(c1ccccc1)C(=O)N2` (single isomer, unassigned) [Compound 2.2a, 3-amino-5-(3,5-dimethylisoxazol-4-yl)-3-phenylindolin-2-one], the IC50 (in general, the concentration needed to halve the response being measured) in assay [1] was 24 nM. Further, a half-maximal effect in the assay with MV4-11 (EC50) was put at 159 nM.
Consider `Cc1noc(C)c1-c1ccc2c(c1)C(NC[C@H](C)O)(c1ccccc1)C(=O)N2` (single isomer, unassigned) [Compound 2.14a], for which, in assay [1], the IC50 was found to be 78 nM. Further, in the assay with MV4-11 (Homo sapiens, MV4-11, 72 h), it took 115 nM to reach a half-maximal effect (EC50).
The like results for `Cc1noc(C)c1-c1ccc2c(c1)C(N[C@@H](CO)C(C)C)(c1ccccc1)C(=O)N2` (single isomer, unassigned) [Compound 2.11b] were, in that order, 150 nM and 180 nM.
The corresponding values for `CCOC(=O)CC1(c2ccccc2)C(=O)Nc2ccc(-c3c(C)noc3C)cc21` (stereo not shown) [Compound 3.3, Ethyl 2-(5-(3,5-dimethylisoxazol-4-yl)-2-oxo-3-phenylindolin-3-yl)acetate] are 440 nM and 787 nM.
For `Cc1ccc(C2(O)C(=O)Nc3ccc(-c4c(C)noc4C)cc32)cc1` (stereo not shown) [Compound 1.5, 5-(3,5-dimethylisoxazol-4-yl)-3-hydroxy-3-p-tolylindolin-2-one], the IC50 in assay [1] was found to be 180 nM. Moreover, the EC50 (in general, the concentration giving half of the maximal effect) with MV4-11 (Homo sapiens, 72 h) was found to be 285 nM.
As to `Cc1noc(C)c1-c1ccc2c(c1)C(c1ccsc1)(N1CCC[C@@H](N)C1)C(=O)N2` (single isomer, unassigned) [Compound 4.6a], the IC50 in assay [1] was determined as 30 nM. In the assay with MV4-11, this compound registered an EC50 of 102 nM.
In the case of `Cc1noc(C)c1-c1ccc2c(c1)C(C1CCCC1)(N1CCNCC1)C(=O)N2` (stereo not shown) [Compound 2.40, 3-Cyclopentyl-5-(3,5-dimethylisoxazol-4-yl)-3-(piperazin-1-yl)indolin-2-one], the IC50 in assay [1] is 150 nM. In addition, the concentration for a half-maximal effect (EC50) in the assay on MV4-11 (Homo sapiens, MV4-11, 72 h) worked out at 555 nM.
Turning to `Cc1noc(C)c1-c1ccc2c(c1)C(NCCN(C)C)(C1CCCCC1)C(=O)N2` (stereo not shown) [Compound 2.28, 3-cyclohexyl-3-(2-(dimethylamino)ethylamino)-5-(3,5-dimethylisoxazol-4-yl)indolin-2-one], in assay [1], the IC50 came out at 140 nM. In the assay with MV4-11 (Homo sapiens, MV4-11, 72 h), this compound had an EC50 of 539 nM.
On to `Cc1noc(C)c1-c1ccc2c(c1)C(N)(c1ccccc1)C(=O)N2` (single isomer, unassigned) [Compound 2.2b, 3-amino-5-(3,5-dimethylisoxazol-4-yl)-3-phenylindolin-2-one], for which, in assay [1], the concentration for half-maximal inhibition (IC50) was 3600 nM. In addition, the 50% effective concentration (EC50) in the assay with MV4-11 is > 10000 nM.
As for `Cc1noc(C)c1-c1ccc2c(c1)C(O)(c1ccccc1)C(=O)N2` (stereo not shown) [Compound 1.1, 5-(3,5-dimethylisoxazol-4-yl)-3-hydroxy-3-phenylindolin-2-one], in assay [1], the IC50 is 51 nM. For the same compound, in the assay on MV4-11 (Homo sapiens, 72 h), the EC50 turned out to be 124 nM.
On to `Cc1noc(C)c1-c1ccc2c(c1)C(CCCO)(c1ccccc1)C(=O)N2` (stereo not shown) [Compound 3.2, 5-(3,5-dimethylisoxazol-4-yl)-3-(3-hydroxypropyl)-3-phenylindolin-2-one], for which, in assay [1], the half-inhibitory concentration (IC50) is 52 nM. For the same compound, the response in the assay with MV4-11 (Homo sapiens, MV4-11, 72 h) was half-maximal at 125 nM (EC50).
The corresponding values for `Cc1noc(C)c1-c1ccc2c(c1)C(c1ccccc1)(N1CCOCC1)C(=O)N2` (stereo not shown) [Compound 2.6, 5-(3,5-dimethylisoxazol-4-yl)-3-morpholino-3-phenylindolin-2-one] are 63 nM and 179 nM.
The like results for `Cc1noc(C)c1-c1ccc2c(c1)C(C1CCCCC1)(N1CCOCC1)C(=O)N2` (stereo not shown) [Compound 2.29] were, in that order, 94 nM and 314 nM.
As to `C=CCCCC1(O)C(=O)Nc2ccc(-c3c(C)noc3C)cc21` (stereo not shown) [Compound 1.25, 5-(3,5-dimethylisoxazol-4-yl)-3-hydroxy-3-(pent-4-enyl)indolin-2-one], the EC50 in the assay with MV4-11 (Homo sapiens, MV4-11, 72 h) came to 1540 nM.
For the compound `Cc1noc(C)c1-c1ccc2c(c1)C(c1ccccc1)(N1CCN(C)CC1)C(=O)N2` (stereo not shown) [Compound 2.5, 5-(3,5-dimethylisoxazol-4-yl)-3-(4-methylpiperazin-1-yl)-3-phenylindolin-2-one], in assay [1], the concentration for half-maximal inhibition (IC50) came out at 110 nM. This compound had an EC50 in the assay on MV4-11 (Homo sapiens, MV4-11, 72 h) of 420 nM.
For the compound `Cc1noc(C)c1-c1ccc2c(c1)C(OCCO)(C1CCCCC1)C(=O)N2` (stereo not shown) [Compound 1.33, 3-Cyclohexyl-5-(3,5-dimethylisoxazol-4-yl)-3-(2-hydroxyethoxy)indolin-2-one], the EC50 in the assay on MV4-11 (Homo sapiens, MV4-11, 72 h) was found to be 307 nM.
As for `Cc1noc(C)c1-c1ccc2c(c1)C(CCCN(C)C)(c1ccccc1)C(=O)N2` (stereo not shown) [Compound 3.10, 3-(3-(Dimethylamino)propyl)-5-(3,5-dimethylisoxazol-4-yl)-3-phenylindolin-2-one], the 50% inhibitory concentration (IC50) in assay [1] came to 140 nM. In the assay on MV4-11 (Homo sapiens, MV4-11, 72 h), this compound had a concentration for a half-maximal effect (EC50) of 490 nM.
The corresponding values for `Cc1noc(C)c1-c1ccc2c(c1)C(N[C@H](C)CO)(C1CCCCC1)C(=O)N2` (stereo partly drawn) [Compound 2.24, 3-cyclohexyl-5-(3,5-dimethylisoxazol-4-yl)-3-((R)-1-hydroxypropan-2-ylamino)indolin-2-one] are 75 nM and 349 nM.
The like results for `Cc1noc(C)c1-c1ccc2c(c1)C(c1ccccc1)C(=O)N2` (stereo not shown) [Compound 3.1, 5-(3,5-Dimethylisoxazol-4-yl)-3-phenylindolin-2-one] were, in that order, 110 nM and 382 nM.
For `Cc1noc(C)c1-c1ccc2c(c1)C(N[C@H](CO)C(C)C)(c1ccccc1)C(=O)N2` (single isomer, unassigned) [Compound 2.12a], the IC50 in assay [1] stood at 89 nM. This compound also returned an EC50 with MV4-11 (Homo sapiens, MV4-11, 72 h) of 144 nM.
The like results for `Cc1noc(C)c1-c1ccc2c(c1)C(c1ccsc1)(N1CCC[C@H](N)C1)C(=O)N2` (single isomer, unassigned) [Compound 4.7b] were, in that order, 8 nM and 34 nM.
`Cc1noc(C)c1-c1ccc2c(c1)C(c1ccsc1)(N1CCC[C@@H](O)C1)C(=O)N2` (single isomer, unassigned) [Compound 4.9b]: it took 39 nM to reach a half-maximal effect in the assay on MV4-11 (EC50).
For `Cc1noc(C)c1-c1ccc2c(c1)C(c1ccsc1)(N1CCC[C@H](O)C1)C(=O)N2` (single isomer, unassigned) [Compound 4.10a], in the assay with MV4-11 (Homo sapiens, MV4-11, 72 h), the EC50 was determined as 72 nM.
For `Cc1noc(C)c1-c1ccc2c(c1)C(O)(C1CC1)C(=O)N2` (stereo not shown) [Compound 1.19, 3-cyclopropyl-5-(3,5-dimethylisoxazol-4-yl)-3-hydroxyindolin-2-one], in assay [1], the IC50 came to 850 nM. A half-maximal effect with MV4-11 (Homo sapiens, 72 h) (EC50) was put at 1960 nM.
Consider `Cc1noc(C)c1-c1ccc2c(c1)C(O)(C1CCCC1)C(=O)N2` (stereo not shown) [Compound 1.17, 3-cyclopentyl-5-(3,5-dimethylisoxazol-4-yl)-3-hydroxyindolin-2-one], for which, in assay [1], the IC50 is 270 nM. In addition, the EC50 in the assay on MV4-11 (Homo sapiens, 72 h) is 671 nM.
In the case of `Cc1noc(C)c1-c1ccc2c(c1)C(c1ccsc1)(N1CCC[C@@H](N)C1)C(=O)N2` (single isomer, unassigned) [Compound 4.6b], the half-maximal inhibitory concentration (IC50) in assay [1] worked out at 24 nM. In the assay with MV4-11, a half-maximal response (EC50) required 35 nM.
Regarding `Cc1noc(C)c1-c1ccc2c(c1)C(O)(c1cccc(Cl)c1)C(=O)N2` (stereo not shown) [Compound 1.3, 3-(3-chlorophenyl)-5-(3,5-dimethylisoxazol-4-yl)-3-hydroxyindolin-2-one], the IC50 in assay [1] was found to be 380 nM. This compound registered an EC50 in the assay with MV4-11 (Homo sapiens, 72 h) of 369 nM.
For `Cc1noc(C)c1-c1ccc2c(c1)C(NC[C@H](C)O)(C1CCCCC1)C(=O)N2` (stereo partly drawn) [Compound 2.21, 3-cyclohexyl-5-(3,5-dimethylisoxazol-4-yl)-3-((S)-2-hydroxypropylamino)indolin-2-one], the 50% inhibitory concentration (IC50) in assay [1] worked out at 88 nM. The EC50 with MV4-11 came to 270 nM.
Take `Cc1noc(C)c1-c1ccc2c(c1)C(CCCN1CCN(C)CC1)(c1ccccc1)C(=O)N2` (stereo not shown) [Compound 3.7, 5-(3,5-Dimethylisoxazol-4-yl)-3-(3-(4-methylpiperazin-1-yl)propyl)-3-phenylindolin-2-one]: the concentration for half-maximal inhibition (IC50) in assay [1] came to 53 nM. The compound further showed an EC50 in the assay on MV4-11 (Homo sapiens, MV4-11, 72 h) of 116 nM.
On to `Cc1noc(C)c1-c1ccc2c(c1)C(c1ccsc1)(N1CCCC(O)C1)C(=O)N2` (stereo not shown) [Compound 4.8, 5-(3,5-dimethylisoxazol-4-yl)-3-(3-hydroxypiperidin-1-yl)-3-(thiophen-3-yl)indolin-2-one], for which a half-maximal response in the assay with MV4-11 (Homo sapiens, MV4-11, 72 h) (EC50) required 42 nM. This counts as double-digit nanomolar.
Turning to `Cc1noc(C)c1-c1ccc2c(c1)C(c1ccsc1)(N1CCC[C@H](O)C1)C(=O)N2` (single isomer, unassigned) [Compound 4.10b], it took 56 nM to reach a half-maximal effect in the assay with MV4-11 (EC50). This lies in the double-digit nanomolar range.
Consider `Cc1noc(C)c1-c1ccc2c(c1)C(c1ccccc1)(N1CCCC(O)C1)C(=O)N2` (stereo not shown) [Compound 2.15, 5-(3,5-dimethylisoxazol-4-yl)-3-(3-hydroxypiperidin-1-yl)-3-phenylindolin-2-one], for which, in the assay with MV4-11 (Homo sapiens, MV4-11, 72 h), the EC50 was determined as 95 nM.
In the case of `Cc1noc(C)c1-c1ccc2c(c1)C(c1ccccc1)(N1CCC[C@@H](O)C1)C(=O)N2` (stereo partly drawn) [Compound 2.17, 5-(3,5-dimethylisoxazol-4-yl)-3-((R)-3-hydroxypiperidin-1-yl)-3-phenylindolin-2-one], the 50% effective concentration (EC50) with MV4-11 (Homo sapiens, MV4-11, 72 h) was 363 nM.
On to `Cc1noc(C)c1-c1ccc2c(c1)C(N)(c1ccccc1)C(=O)N2` (stereo not shown) [Compound 2.2, 3-amino-5-(3,5-dimethylisoxazol-4-yl)-3-phenylindolin-2-one], for which it took 283 nM to reach a half-maximal effect in the assay with MV4-11 (Homo sapiens, MV4-11, 72 h) (EC50).
Still for that read-out and setting: the result for `Cc1noc(C)c1-c1ccc2c(c1)C(C1CCCCC1)(N1CCN(C)CC1)C(=O)N2` (stereo not shown) [Compound 2.26, 3-cyclohexyl-5-(3,5-dimethylisoxazol-4-yl)-3-(4-methylpieprazin-1-yl)indolin-2-one] reads 204 nM; that for `C=CCCC1(O)C(=O)Nc2ccc(-c3c(C)noc3C)cc21` (stereo not shown) [Compound 1.24, 3-(but-3-enyl)-5-(3,5-dimethylisoxazol-4-yl)-3-hydroxyindolin-2-one], 934 nM; that for `Cc1noc(C)c1-c1ccc2c(c1)C(c1ccsc1)(N1CCC[C@@H](O)C1)C(=O)N2` (single isomer, unassigned) [Compound 4.9a], 54 nM.
As for `Cc1noc(C)c1-c1ccc2c(c1)C(c1ccsc1)C(=O)N2` (stereo not shown) [Compound 4.11, 5-(3,5-Dimethylisoxazol-4-yl)-3-(thiophen-3-yl)indolin-2-one], in assay [1], the 50% inhibitory concentration (IC50) turned out to be 120 nM.
As for `Cc1noc(C)c1-c1ccc2c(c1)C(C1CCCC1)(N1CCN(C)CC1)C(=O)N2` (stereo not shown) [Compound 2.36, 3-cyclopentyl-5-(3,5-dimethylisoxazol-4-yl)-3-(4-methylpiperazin-1-yl)indolin-2-one], in the assay with MV4-11 (Homo sapiens, MV4-11, 72 h), the EC50 came out at 596 nM.
